Source: ChEMBL document CHEMBL1153435, “Harnessing nature's insight: design of aspartyl protease inhibitors from treatment of drug-resistant HIV to Alzheimer's disease” (J Med Chem, 2009)
Blank lines part the entries; values can stand above or below the compound they belong to. *1 amine or outer side, *2 acyl side, *3 side chain or, on linkers, in order; H or OH if unused. Where a SMILES comes first, the peptide text is derived from it. [ ]: non-standard residue; d: D form. LeuΨ(S-CHOHCH2)Ala = CC(C)C[C@H](N[*:1])[C@@H](O)C[C@@H](C)C(=O)[*:2]

Tests used:
[1] = biological target: Protease (Human immunodeficiency virus 1, UniProt Q9YQ12); test: Inhibition of HIV1 protease
Chain of Protease (Q9YQ12 whole entry): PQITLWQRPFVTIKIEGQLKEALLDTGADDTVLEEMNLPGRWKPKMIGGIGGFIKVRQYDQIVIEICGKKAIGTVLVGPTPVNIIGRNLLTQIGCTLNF

[2] = system: Human immunodeficiency virus 1; test: Antiviral activity against HIV1 assessed as inhibition of viral replication; format: functional, organism-based; conditions: for IC95: read-out: CIC95
[3] = system: Human immunodeficiency virus 1; test: Antiviral activity against protease inhibitor resistant HIV1 isolates; format: functional, organism-based
[4] = biological target: Protease (Human immunodeficiency virus 1) (UniProt Q9YQ12)
Chain of Protease (Human immunodeficiency virus 1) (Q9YQ12 as listed by the source): as the sequence (Q9YQ12 whole entry) above

[5] = Oral bioavailability in HIV1 infected patient at 600 mg administered as single dose; format: ADME, organism-based; conditions: human, in vivo
[6] = biological target: Beta-secretase 1 (Homo sapiens, UniProt P56817); test: Inhibition of recombinant memapsin 2
Chain of Beta-secretase 1 (P56817 whole entry): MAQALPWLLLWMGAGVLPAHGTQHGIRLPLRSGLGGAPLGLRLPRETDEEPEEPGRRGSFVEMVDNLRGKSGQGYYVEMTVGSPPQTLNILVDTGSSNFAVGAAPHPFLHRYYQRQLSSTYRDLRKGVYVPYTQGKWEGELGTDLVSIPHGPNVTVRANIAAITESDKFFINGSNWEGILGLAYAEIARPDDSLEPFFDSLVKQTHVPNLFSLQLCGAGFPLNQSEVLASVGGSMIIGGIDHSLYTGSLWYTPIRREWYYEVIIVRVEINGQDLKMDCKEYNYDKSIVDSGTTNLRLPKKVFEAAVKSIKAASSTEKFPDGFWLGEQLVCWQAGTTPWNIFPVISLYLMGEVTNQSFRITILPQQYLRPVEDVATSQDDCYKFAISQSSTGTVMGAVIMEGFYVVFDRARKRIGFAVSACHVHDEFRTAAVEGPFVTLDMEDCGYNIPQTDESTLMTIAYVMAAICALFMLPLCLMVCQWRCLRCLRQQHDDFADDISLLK

[7] = system: Human immunodeficiency virus 1; test: Antiviral activity against laboratory HIV1 strains and primary clinical isolates
[8] = read-out: ID50 (the source's name)

Ki [1]: 2.2 nM
IC50 [2, 8]: 4.5 nM
Compound: COc1ccc(S(=O)(=O)N(CC(C)C)C[C@@H](O)[C@H](Cc2ccccc2)NC(=O)O[C@H]2COC3OCCC[C@@H]32)cc1 (single isomer, unassigned)

IC50 [1]: 0.05 nM
Compound: CC(C)(C)NC(=O)[C@@H]1C[C@@H]2CCCC[C@@H]2CN1C[C@@H](O)[C@H](Cc1ccccc1)NC(=O)[C@@H](NC(=O)c1ccc2ccccc2n1)[C@H]1CCOC1
IC95 [2]: 8 nM

IC50 [1]: 160 nM
Compound: CC(C)(C)NC(=O)[C@@H]1C[C@@H]2CCCC[C@@H]2CN1C[C@@H](O)[C@H](Cc1ccccc1)NC(=O)O[C@H]1CCOC1
IC95 [2]: 800 nM

bioavailability [5]: 37%
Compound: CC(C)c1nc(CN(C)C(=O)N[C@H](C(=O)N[C@@H](Cc2ccccc2)C[C@H](O)[C@H](Cc2ccccc2)NC(=O)OCc2cncs2)C(C)C)cs1 [RITONAVIR]

Ki [6]: 6.8 nM
Compound: CC(C)C[C@H](NC(=O)[C@H](CC(N)=O)NC(=O)[C@@H](N)C(C)C)[C@@H](O)C[C@@H](C)C(=O)N[C@@H](C)C(=O)N[C@@H](CCC(=O)O)C(=O)N[C@@H](Cc1ccccc1)C(=O)O (H-VN[LeuΨ(S-CHOHCH2)Ala]AEF-OH)

IC50 [1]: < 0.03 nM
Compound: O=C(N[C@@H](Cc1ccccc1)[C@@H](O)C[C@@H](Cc1ccccc1)C(=O)N[C@H]1c2ccccc2C[C@H]1O)O[C@H]1CCOC1
IC95 [2]: 3 nM

IC50 [1]: 3.8 nM
Ki [1]: 0.11 nM
Compound: COc1ccc(S(=O)(=O)N(CC(C)C)C[C@@H](O)[C@H](Cc2ccccc2)NC(=O)O[C@H]2CC[C@H]3OCO[C@@H]23)cc1

IC50 [2, 8]: 18 nM
Compound: CC(C)(C)NC(=O)[C@@H]1C[C@@H]2CCCC[C@@H]2CN1C[C@@H](O)[C@H](Cc1ccccc1)NC(=O)[C@H](CC(N)=O)NC(=O)c1ccc2ccccc2n1

Ki [1]: 3.9 nM
IC50 [2, 8]: 1200 nM
Compound: COc1ccc(S(=O)(=O)N(CC(C)C)C[C@@H](O)[C@H](Cc2ccccc2)NC(=O)[C@@H]2CCO[C@]3(CCCO3)C2)cc1

IC50 [1]: 76 nM
Compound: CC(C)(C)NC(=O)[C@@H]1C[C@@H]2CCCC[C@@H]2CN1C[C@@H](O)[C@H](Cc1ccccc1)NC(=O)O[C@H]1CCS(=O)(=O)C1
IC95 [2]: 350 nM

IC50 [1]: 17 nM
Compound: CC(C)(C)NC(=O)[C@@H]1C[C@@H]2CCCC[C@@H]2CN1C[C@@H](O)[C@H](Cc1ccccc1)NC(=O)O[C@H]1CC[C@H]2OCC[C@@H]12

Ki [1]: 1.4 nM
IC50 [2, 8]: 17 nM
Compound: COc1ccc(S(=O)(=O)N(CC(C)C)C[C@@H](O)[C@H](Cc2ccccc2)NC(=O)[C@@H]2CCCS(=O)(=O)C2)cc1

IC50 ([2]; read-out: IC50): 4.1 nM
Compound: COc1ccc(S(=O)(=O)N(CC(C)C)C[C@@H](O)[C@H](Cc2ccccc2)NC(=O)O[C@H]2CO[C@@H]3OCC[C@@H]32)cc1

Further lines, the compound ahead of its results:

Compound: COc1ccc(S(=O)(=O)N(CC(C)C)C[C@@H](O)[C@H](Cc2ccccc2)NC(=O)O[C@H]2CC[C@]3(CCCO3)C2)cc1
Ki [1]: 3.7 nM
IC50 [2, 8]: 265 nM

Compound: COc1ccc(S(=O)(=O)N(CC(C)C)C[C@@H](O)[C@H](Cc2ccccc2)NC(=O)O[C@H]2CO[C@H]3OCC[C@H]32)cc1
IC50 [3]: 0.5 nM

Compound: CC(C)CN(C[C@@H](O)[C@H](Cc1ccccc1)NC(=O)O[C@H]1CCOC1)S(=O)(=O)c1ccc(N)cc1
Ki [1]: 0.6 nM
IC90 [4]: 40 nM

Compound: CC(C)(C)NC(=O)[C@@H]1C[C@@H]2CCCC[C@@H]2CN1C[C@@H](O)[C@H](Cc1ccccc1)NC(=O)O[C@H]1CO[C@H]2OCC[C@H]21
IC95 [2]: 46 nM

Compound: COc1ccc(S(=O)(=O)N(CC(C)C)C[C@@H](O)[C@H](Cc2ccccc2)NC(=O)O[C@H]2CCS(=O)(=O)C2)cc1
Ki [1]: 1.4 nM
IC50 [2, 8]: 19 nM

Compound: O=C(N[C@@H](Cc1ccccc1)[C@@H](O)C[C@@H](Cc1ccccc1)C(=O)N[C@H]1c2ccccc2C[C@H]1O)OC1CCCC1
IC50 [1]: 0.3 nM
IC95 [2]: 400 nM

Compound: COc1ccc(S(=O)(=O)N(C[C@@H]2CCC(=O)N2)C[C@@H](O)[C@H](Cc2ccccc2)NC(=O)O[C@H]2CC[C@H]3OCC[C@@H]23)cc1
IC50 [1]: 28 nM
Ki [1]: 0.16 nM

Compound: CC(C)CN(C[C@@H](O)[C@H](Cc1ccccc1)NC(=O)O[C@H]1CO[C@H]2OCC[C@H]21)S(=O)(=O)c1ccc2c(c1)OCO2
IC50 ([2]; read-out: IC50): 1.4 nM

Compound: COc1ccc(S(=O)(=O)N(CC(C)C)C[C@@H](O)[C@H](Cc2ccccc2)NC(=O)O[C@@H]2CCOCOC2)cc1
IC50 [1]: 5 nM

Compound: COc1ccc(S(=O)(=O)N(CC(C)C)C[C@@H](O)[C@H](Cc2ccccc2)NC(=O)[C@@H]2CCC[C@]3(CCCO3)C2)cc1
Ki [1]: 2.9 nM

Compound: CSCC[C@H](NC(=O)[C@@H](NC(=O)OC(C)(C)C)C(C)C)C(=O)N[C@@H](CC(C)C)[C@@H](O)C[C@@H](C)C(=O)N[C@H](C(=O)NCC(C)C)C(C)C
Ki [6]: 0.8 nM

Compound: CC(C)CN(C[C@@H](O)[C@H](Cc1ccccc1)NC(=O)O[C@H]1CO[C@H]2OCC[C@H]21)S(=O)(=O)c1ccc(N)cc1
IC50 ([2]; read-out: IC50): 4.1 nM
IC90 [7]: 9 nM
